Experiment in all cases: Kinase activity test (ReactionBiology), % enzyme activity relative to DMSO
What all share (type): biochemical

The target in assay [1] is T1, CK1d (Homo sapiens, UniProt P48730).
T1 construct: purchased ReactionBiology

Assay [2] has as its target T2, EPHB4 (Homo sapiens, UniProt P54760).
T2 construct: purchased ReactionBiology
T2 sequence (P54760 16-987): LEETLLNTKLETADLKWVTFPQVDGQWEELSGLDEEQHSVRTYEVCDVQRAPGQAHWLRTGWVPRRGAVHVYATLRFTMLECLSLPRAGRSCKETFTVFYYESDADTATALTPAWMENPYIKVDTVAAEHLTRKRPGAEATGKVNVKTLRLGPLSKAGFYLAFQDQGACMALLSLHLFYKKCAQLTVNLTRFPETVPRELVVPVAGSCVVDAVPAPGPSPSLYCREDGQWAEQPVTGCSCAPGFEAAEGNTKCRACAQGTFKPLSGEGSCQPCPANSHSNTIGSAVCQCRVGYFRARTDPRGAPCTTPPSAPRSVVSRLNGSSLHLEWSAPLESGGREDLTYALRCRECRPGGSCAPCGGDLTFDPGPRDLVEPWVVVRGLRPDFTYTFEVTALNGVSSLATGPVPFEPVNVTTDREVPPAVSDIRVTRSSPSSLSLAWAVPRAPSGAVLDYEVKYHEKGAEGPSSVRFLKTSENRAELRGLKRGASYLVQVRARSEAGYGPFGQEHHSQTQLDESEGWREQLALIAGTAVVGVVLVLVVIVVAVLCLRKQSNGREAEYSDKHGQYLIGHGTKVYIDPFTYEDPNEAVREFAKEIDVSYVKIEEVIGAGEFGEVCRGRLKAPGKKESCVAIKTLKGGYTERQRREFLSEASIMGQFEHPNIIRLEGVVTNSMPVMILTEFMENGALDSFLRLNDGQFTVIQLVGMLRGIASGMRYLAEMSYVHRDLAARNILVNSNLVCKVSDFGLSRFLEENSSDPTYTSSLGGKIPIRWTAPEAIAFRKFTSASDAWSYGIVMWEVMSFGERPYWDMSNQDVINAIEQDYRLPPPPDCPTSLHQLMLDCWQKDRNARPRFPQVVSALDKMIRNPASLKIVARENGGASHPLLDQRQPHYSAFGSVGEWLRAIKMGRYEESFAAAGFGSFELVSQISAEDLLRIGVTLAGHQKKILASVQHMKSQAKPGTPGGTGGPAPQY

Assay [3] addresses T3, DAPK1 (Homo sapiens, UniProt P53355).
T3 construct: purchased ReactionBiology

Assay [4] addresses VEGFR2 (Homo sapiens, UniProt P35968). On the set-up: purchased ReactionBiology. The settings on record: VEGFR2.
Assay [5] concerns the target T4, NEK2 (Homo sapiens, UniProt P51955).
T4 construct: purchased ReactionBiology
T4 sequence (P51955 1-445): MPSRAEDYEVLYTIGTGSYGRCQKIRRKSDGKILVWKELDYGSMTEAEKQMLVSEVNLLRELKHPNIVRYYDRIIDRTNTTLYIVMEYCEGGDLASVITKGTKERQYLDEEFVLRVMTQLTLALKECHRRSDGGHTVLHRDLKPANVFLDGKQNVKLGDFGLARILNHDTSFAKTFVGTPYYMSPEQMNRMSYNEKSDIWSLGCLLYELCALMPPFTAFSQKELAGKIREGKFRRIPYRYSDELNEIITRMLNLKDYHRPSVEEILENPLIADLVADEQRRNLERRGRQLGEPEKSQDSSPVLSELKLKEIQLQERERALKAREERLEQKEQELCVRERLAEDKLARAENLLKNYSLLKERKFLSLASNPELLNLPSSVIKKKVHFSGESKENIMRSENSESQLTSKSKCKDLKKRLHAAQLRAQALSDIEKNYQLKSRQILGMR
To be noted: NEK2.

Where [6] appears, read: CK1d, 1 uM, Average, read-out: % Enzyme Activity (relative to DMSO controls), Average.
The mark [7] stands for this setting: CK1d, 1 uM, replicate Data 1, read-out: % Enzyme Activity (relative to DMSO controls), Data 1.
Setting [8] is: CK1d, 1 uM, replicate Data 2, read-out: % Enzyme Activity (relative to DMSO controls), Data 2.
Where [9] appears, read: CK1d, 10 uM, Average, read-out: % Enzyme Activity (relative to DMSO controls), Average.
Setting [10] is: CK1d, 10 uM, replicate Data 1, read-out: % Enzyme Activity (relative to DMSO controls), Data 1.
[11] abbreviates: CK1d, 10 uM, replicate Data 2, read-out: % Enzyme Activity (relative to DMSO controls), Data 2.
Where [12] appears, read: EPHB4, 1 uM, Average, read-out: % Enzyme Activity (relative to DMSO controls), Average.
[13] abbreviates: EPHB4, 1 uM, replicate Data 1, read-out: % Enzyme Activity (relative to DMSO controls), Data 1.
The mark [14] stands for this setting: EPHB4, 1 uM, replicate Data 2, read-out: % Enzyme Activity (relative to DMSO controls), Data 2.
The mark [15] stands for this setting: EPHB4, 10 uM, Average, read-out: % Enzyme Activity (relative to DMSO controls), Average.
Where [16] appears, read: EPHB4, 10 uM, replicate Data 1, read-out: % Enzyme Activity (relative to DMSO controls), Data 1.
Where [17] appears, read: EPHB4, 10 uM, replicate Data 2, read-out: % Enzyme Activity (relative to DMSO controls), Data 2.
Where [18] appears, read: 1 uM, Average, read-out: % Enzyme Activity (relative to DMSO controls), Average.
Where [19] appears, read: 1 uM, replicate Data 1, read-out: % Enzyme Activity (relative to DMSO controls), Data 1.
Setting [20] is: 1 uM, replicate Data 2, read-out: % Enzyme Activity (relative to DMSO controls), Data 2.
The mark [21] stands for this setting: 10 uM, Average, read-out: % Enzyme Activity (relative to DMSO controls), Average.
The mark [22] stands for this setting: 10 uM, replicate Data 1, read-out: % Enzyme Activity (relative to DMSO controls), Data 1.
Where [23] appears, read: 10 uM, replicate Data 2, read-out: % Enzyme Activity (relative to DMSO controls), Data 2.
Where [24] appears, read: read-out: % Enzyme Activity (relative to DMSO controls), Average.
Setting [25] is: read-out: % Enzyme Activity (relative to DMSO controls), Data 1.
Where [26] appears, read: read-out: % Enzyme Activity (relative to DMSO controls), Data 2.

Like-named read-outs stand apart in the source and are kept apart here.

T3 sequence (P53355 whole entry): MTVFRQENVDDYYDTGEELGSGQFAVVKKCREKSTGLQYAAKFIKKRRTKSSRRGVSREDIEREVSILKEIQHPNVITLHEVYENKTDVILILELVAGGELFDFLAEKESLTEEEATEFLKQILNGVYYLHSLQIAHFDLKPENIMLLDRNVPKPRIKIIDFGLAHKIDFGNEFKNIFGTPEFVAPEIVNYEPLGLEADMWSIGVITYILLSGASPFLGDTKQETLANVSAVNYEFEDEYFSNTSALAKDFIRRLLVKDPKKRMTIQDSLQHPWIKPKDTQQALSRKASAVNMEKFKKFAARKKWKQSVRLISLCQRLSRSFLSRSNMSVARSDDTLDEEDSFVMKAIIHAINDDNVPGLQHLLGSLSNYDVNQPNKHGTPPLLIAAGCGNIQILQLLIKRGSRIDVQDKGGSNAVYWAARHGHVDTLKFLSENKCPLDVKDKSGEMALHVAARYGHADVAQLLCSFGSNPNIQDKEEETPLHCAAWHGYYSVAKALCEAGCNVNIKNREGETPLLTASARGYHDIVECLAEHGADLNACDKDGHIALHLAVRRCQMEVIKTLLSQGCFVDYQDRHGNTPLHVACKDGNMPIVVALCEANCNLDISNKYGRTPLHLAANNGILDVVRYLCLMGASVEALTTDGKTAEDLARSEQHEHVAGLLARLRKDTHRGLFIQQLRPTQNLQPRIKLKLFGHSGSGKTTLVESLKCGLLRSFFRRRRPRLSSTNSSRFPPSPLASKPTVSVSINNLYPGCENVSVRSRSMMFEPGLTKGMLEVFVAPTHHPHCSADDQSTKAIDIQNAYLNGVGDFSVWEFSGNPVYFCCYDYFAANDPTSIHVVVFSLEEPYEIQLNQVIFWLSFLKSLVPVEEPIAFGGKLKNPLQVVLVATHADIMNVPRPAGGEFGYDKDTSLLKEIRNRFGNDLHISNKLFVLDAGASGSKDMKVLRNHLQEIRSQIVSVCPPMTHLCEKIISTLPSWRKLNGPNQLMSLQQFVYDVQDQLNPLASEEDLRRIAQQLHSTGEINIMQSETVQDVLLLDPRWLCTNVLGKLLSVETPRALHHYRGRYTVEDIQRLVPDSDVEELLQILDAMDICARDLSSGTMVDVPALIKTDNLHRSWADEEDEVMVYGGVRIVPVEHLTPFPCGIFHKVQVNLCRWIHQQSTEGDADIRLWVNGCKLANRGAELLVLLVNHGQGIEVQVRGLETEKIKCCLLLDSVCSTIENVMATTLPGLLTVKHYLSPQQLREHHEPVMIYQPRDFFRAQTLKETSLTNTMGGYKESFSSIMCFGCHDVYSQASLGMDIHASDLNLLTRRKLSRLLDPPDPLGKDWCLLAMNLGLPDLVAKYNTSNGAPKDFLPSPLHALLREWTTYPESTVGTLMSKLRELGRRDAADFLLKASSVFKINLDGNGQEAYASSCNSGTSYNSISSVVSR
T1 sequence (P48730 whole entry): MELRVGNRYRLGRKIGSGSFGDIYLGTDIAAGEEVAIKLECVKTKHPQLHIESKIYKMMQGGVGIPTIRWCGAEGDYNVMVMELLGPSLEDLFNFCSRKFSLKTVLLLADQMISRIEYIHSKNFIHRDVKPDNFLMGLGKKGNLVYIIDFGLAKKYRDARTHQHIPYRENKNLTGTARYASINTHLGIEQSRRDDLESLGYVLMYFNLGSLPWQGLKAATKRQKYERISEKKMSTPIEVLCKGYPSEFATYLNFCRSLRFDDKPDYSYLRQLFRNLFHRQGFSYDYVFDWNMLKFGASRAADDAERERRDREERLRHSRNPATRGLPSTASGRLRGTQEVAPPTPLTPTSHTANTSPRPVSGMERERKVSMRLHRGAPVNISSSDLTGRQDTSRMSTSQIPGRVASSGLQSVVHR
Chain of VEGFR2 (P35968 20-1356): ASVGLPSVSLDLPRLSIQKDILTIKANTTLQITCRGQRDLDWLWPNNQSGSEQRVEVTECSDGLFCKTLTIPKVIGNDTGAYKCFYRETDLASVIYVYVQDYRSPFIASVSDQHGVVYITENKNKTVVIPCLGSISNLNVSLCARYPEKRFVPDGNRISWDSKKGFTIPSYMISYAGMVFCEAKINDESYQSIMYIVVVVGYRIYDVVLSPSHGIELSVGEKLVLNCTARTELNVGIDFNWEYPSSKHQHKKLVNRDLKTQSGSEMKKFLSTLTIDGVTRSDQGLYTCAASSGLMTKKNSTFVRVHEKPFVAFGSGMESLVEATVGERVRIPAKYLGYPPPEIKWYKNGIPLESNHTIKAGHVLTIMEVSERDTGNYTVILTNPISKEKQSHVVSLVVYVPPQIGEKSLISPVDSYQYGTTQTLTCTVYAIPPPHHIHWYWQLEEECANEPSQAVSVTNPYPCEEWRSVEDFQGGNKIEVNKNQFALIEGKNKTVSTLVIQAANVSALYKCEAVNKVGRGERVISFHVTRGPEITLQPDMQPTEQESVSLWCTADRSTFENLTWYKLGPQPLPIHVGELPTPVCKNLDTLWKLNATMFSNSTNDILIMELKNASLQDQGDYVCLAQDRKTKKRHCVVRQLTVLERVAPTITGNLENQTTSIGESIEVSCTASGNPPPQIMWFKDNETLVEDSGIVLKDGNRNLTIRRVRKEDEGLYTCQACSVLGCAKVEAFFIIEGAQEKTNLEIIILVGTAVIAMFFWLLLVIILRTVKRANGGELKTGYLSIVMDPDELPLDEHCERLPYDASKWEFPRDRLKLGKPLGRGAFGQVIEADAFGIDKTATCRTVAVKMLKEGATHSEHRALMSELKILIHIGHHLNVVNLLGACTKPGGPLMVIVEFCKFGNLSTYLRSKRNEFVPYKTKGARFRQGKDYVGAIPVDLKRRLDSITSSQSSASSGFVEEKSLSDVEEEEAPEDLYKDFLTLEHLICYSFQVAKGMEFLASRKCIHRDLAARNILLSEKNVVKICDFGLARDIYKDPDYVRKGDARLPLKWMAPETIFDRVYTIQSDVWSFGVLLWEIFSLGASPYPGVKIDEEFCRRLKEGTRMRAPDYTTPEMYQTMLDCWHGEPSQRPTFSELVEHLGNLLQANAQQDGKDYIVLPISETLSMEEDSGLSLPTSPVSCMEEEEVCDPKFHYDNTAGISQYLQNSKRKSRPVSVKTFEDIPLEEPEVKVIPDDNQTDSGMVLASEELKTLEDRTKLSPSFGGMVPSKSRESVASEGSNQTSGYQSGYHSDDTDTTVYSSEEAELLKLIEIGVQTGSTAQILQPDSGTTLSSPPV

Regarding `COc1cc2c(c(OC)c1OC)-c1ccc(OC)c(=O)cc1[C@@H](NC(C)=O)CC2` [Colchicine], the “% Enzyme Activity (relative to DMSO controls), Data 2” value in assay [1] (CK1d, 10 uM, replicate Data 2) is recorded as 111.97%; in assay [2] (EPHB4, 1 uM, replicate Data 2) it was 106.52%; in assay [2] (EPHB4, 10 uM, replicate Data 2), 99.11%; in assay [3] (DAPK1, 1 uM, replicate Data 2) it was 111.85%; in assay [3] (DAPK1, 10 uM, replicate Data 2) it was 96.44%; in assay [4] (1 uM, replicate Data 2), 110.08%. Moreover, the “% Enzyme Activity (relative to DMSO controls), Data 2” value in assay [4] (10 uM, replicate Data 2) came to 105.23%.

On to `O=C1Nc2ccc(Cl)cc2[C@@](C#CC2CC2)(C(F)(F)F)O1` [Efavirenz], for which the “% Enzyme Activity (relative to DMSO controls), Data 1” value in assay [5] (1 uM, replicate Data 1) came to 110.94%; in assay [5] (10 uM, replicate Data 1), 81.38%; in assay [1] (CK1d, 1 uM, replicate Data 1), 101.66%; in assay [2] (EPHB4, 1 uM, replicate Data 1), 93.6%; in assay [2] (EPHB4, 10 uM, replicate Data 1), 93.32%; in assay [4] (1 uM, replicate Data 1) it was 102.21%. The “% Enzyme Activity (relative to DMSO controls), Data 1” value in assay [4] (10 uM, replicate Data 1) came to 95.58%.

On to `CC(=O)O[C@H]1C[C@@]2(C)[C@@H](C[C@@H](O)[C@H]3[C@@]4(C)CC[C@@H](O)[C@@H](C)[C@@H]4CC[C@@]32C)/C1=C(\CCC=C(C)C)C(=O)O` [Fusidic acid], for which the remaining activity at 1 µM in assay [1] (setting [6]) is 100%; in assay [1] (setting [7]) it was 95.3%; in assay [1] (setting [8]), 105%; in assay [2] (setting [12]) it was 101%; in assay [2] (setting [13]), 101%; in assay [2] (setting [14]), 101%. The remaining activity at 1 µM stood at 96.4% in assay [3] (DAPK1, 1 uM, Average, read-out: % Enzyme Activity (relative to DMSO controls), Average); 102% in assay [3] (DAPK1, 1 uM, replicate Data 1, read-out: % Enzyme Activity (relative to DMSO controls), Data 1); 90.5% in assay [3] (DAPK1, 1 uM, replicate Data 2, read-out: % Enzyme Activity (relative to DMSO controls), Data 2); 109% in assay [4] (setting [18]); 110% in assay [4] (setting [19]); 107% in assay [4] (setting [20]). In addition, the remaining activity at 10 µM worked out at 111% in assay [1] (setting [9]); 113% in assay [1] (setting [10]); 108% in assay [1] (setting [11]); 92.3% in assay [2] (setting [15]); 95.3% in assay [2] (setting [16]); 89.3% in assay [2] (setting [17]). Moreover, the remaining activity at 10 µM was determined as 93.7% in assay [3] (DAPK1, 10 uM, Average, read-out: % Enzyme Activity (relative to DMSO controls), Average); 93% in assay [3] (DAPK1, 10 uM, replicate Data 1, read-out: % Enzyme Activity (relative to DMSO controls), Data 1); 94.5% in assay [3] (DAPK1, 10 uM, replicate Data 2, read-out: % Enzyme Activity (relative to DMSO controls), Data 2); 101% in assay [4] (setting [21]); 96% in assay [4] (setting [22]); 105% in assay [4] (setting [23]).

Take `CC(C)c1cccc(C(C)C)c1O` [Propofol, reference compound]: the remaining activity at 1 µM came out at 126% in assay [1] (setting [24]); 145% in assay [1] (setting [25]); 108% in assay [1] (setting [26]); 67% in assay [2] (setting [24]); 76% in assay [2] (setting [25]); 57.9% in assay [2] (setting [26]). The remaining activity at 1 µM was 67% in assay [2] (read-out: % Enzyme activity at 1μM), 107% in assay [3] (setting [24]), 113% in assay [3] (setting [25]) and 102% in assay [3] (setting [26]). Moreover, the remaining activity at 10 µM is 112% in assay [1] (setting [24]); 116% in assay [1] (setting [25]); 108% in assay [1] (setting [26]); 68.4% in assay [2] (setting [24]); 68.4% in assay [2] (setting [25]); 68.5% in assay [2] (setting [26]). Besides, the remaining activity at 10 µM in assay [2] (read-out: % Enzyme activity at 10μM) is 68.4%; in assay [3] (setting [24]), 86.5%; in assay [3] (setting [25]) it was 86.4%; in assay [3] (setting [26]), 86.5%.

Take `O=C(O)c1ccccc1O` [Salicylic acid]: the remaining activity at 1 µM in assay [5] (setting [18]) amounted to 88.2%; in assay [5] (setting [19]) it was 88.1%; in assay [5] (setting [20]), 88.3%; in assay [1] (setting [6]) it was 105%; in assay [1] (setting [7]), 107%; in assay [1] (setting [8]) it was 103%. Besides, the remaining activity at 1 µM was determined as 101% in assay [2] (setting [12]); 99.4% in assay [2] (setting [13]); 102% in assay [2] (setting [14]); 96.6% in assay [4] (setting [18]); 94.4% in assay [4] (setting [19]); 98.7% in assay [4] (setting [20]). For the same compound, the remaining activity at 10 µM in assay [5] (setting [21]) is 102%; in assay [5] (setting [22]), 93.8%; in assay [5] (setting [23]), 109%; in assay [1] (setting [9]) it was 109%; in assay [1] (setting [10]) it was 109%; in assay [1] (setting [11]) it was 110%. For the same compound, the remaining activity at 10 µM was determined as 93.4% in assay [2] (setting [15]); 93% in assay [2] (setting [16]); 93.8% in assay [2] (setting [17]); 101% in assay [4] (setting [21]); 103% in assay [4] (setting [22]); 99.4% in assay [4] (setting [23]).

The record behind these values is PMC7252619 (PLoS ONE, 2020).
